{"source": "patent US9585933B2", "about": "“Therapeutic use of peptide inhibitors of NADPH oxidase; aerosolization as a delivery mechanism” (University of Pittsburgh—Of the Commonwealth System of …, priority 2011, dated 2017)", "key": {"[1]": {"biological_target": "T1, Nox2 oxidase (COS-Nox2 lysate: Nox2, p22phox, p47phox, p67phox) (Homo sapiens, UniProt P14598)", "T1 construct": "host or cells: COS 7 cells, stably transfected; cell lysate used", "T1 sequence (P14598 1-390)": "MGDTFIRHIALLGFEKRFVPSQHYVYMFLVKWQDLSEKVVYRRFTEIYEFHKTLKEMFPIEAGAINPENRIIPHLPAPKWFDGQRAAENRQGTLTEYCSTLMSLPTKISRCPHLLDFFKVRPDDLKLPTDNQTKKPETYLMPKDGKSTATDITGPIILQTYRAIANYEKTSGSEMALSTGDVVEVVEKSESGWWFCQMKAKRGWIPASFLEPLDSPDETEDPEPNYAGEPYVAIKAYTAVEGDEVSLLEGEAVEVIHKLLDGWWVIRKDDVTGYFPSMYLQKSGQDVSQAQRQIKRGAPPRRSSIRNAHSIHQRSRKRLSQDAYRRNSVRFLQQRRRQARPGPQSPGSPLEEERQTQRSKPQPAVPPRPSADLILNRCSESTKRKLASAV", "test": "Cell-free SOD-inhibitable cytochrome c reduction assay, O2- production in COS-Nox2 lysates", "format": "biochemical", "conditions": "for rate of O2- generation, SOD-inhibitable reduction of cytochrome c: 0 μM control 1.33±0.1", "experimental": "To test this hypothesis, the inhibitory activity of Nox2ds was assessed in cell-free assays using reconstituted systems expressing either Nox1, 2 or 4 oxidase. Nox 2 oxidase was recapitulated by stably transfecting COS 7 cells with Nox2, p22phox, p47phox, and p67phox (aka COS-Nox2). Nox1 oxidase was obtained by transfecting COS 7 cells with Nox1, p22phox, NOXO1 and NOXA1 (COS-Nox1), and Nox 4 oxidase was regenerated by transfection of COS 7 cells with Nox4 and p22phox. […] Our new data support selectivity of Nox2ds peptide in differentiating the contribution of Nox2 vs. Nox1 and Nox4 NADPH oxidase and its potential clinical use in ameliorating cardiopulmonary diseases.\nCOS-Nox2: COS 7 cells transfected with p22^phox, Nox2, p47^phox and p67^phox (M. Dinauer, Indiana University). (Price M O, McPhail L C, Lambeth J D, Han C H, Knaus U G, Dinauer M C. Blood. 2002 Apr. 15; 99(8):2653-61.)\nSuperoxide (O2^−) production was measured in COS-Nox1 and COS-Nox2 lysates by determining the rate of O2^− dismutase (SOD) inhibitable cytochrome c reduction and by electron paramagnetic resonance (EPR).\nCOS-Nox2, COS-Nox1/NOXO1/NOXA1, and COS-22 cells were suspended to a concentration of 5×10^7 cells/ml in ice-cold disruption buffer (8 mM potassium, sodium phosphate buffer, pH 7.0, 131 mM NaCl, 340 mM sucrose, 2 mM NaN3, 5 mM MgCl2, 1 mM EGTA, 1 mM EDTA, and protease inhibitor cocktail). The cells were lysed by five freeze/thaw cycles and passed through a 30-gauge needle five times to further lyse the cells. Cell disruption was confirmed by phase-contrast microscopy. The cell lysate was centrifuged at 1000 g for 10 min at 4° C. to remove unbroken cells, nuclei, and debris. Throughout all these procedures, extreme care was taken to maintain the lysate at a temperature close to 0° C. Superoxide production was calculated from the initial linear rate (over 10 min) of SOD-inhibitable cytochrome c reduction quantified at 550 nm using the extinction coefficient of 21.1 mM-1 cm-1 (Biotek Synergy 4 hybrid multimode microplate reader). The oxidase assay buffer consisted of 65 mM sodium phosphate buffer (pH 7.0), 1 mM EGTA, 10 μM FAD, 1 mM MgCl2, 2 mM NaN3, and 0.2 mM cytochrome c. The components of the cell-free system were added in the following order: oxidase assay buffer, cell lysate (5×10^5 cell equivalents/well), and Nox2ds/Scrmb Nox2ds peptides at a final concentration of 0.1, 0.3, 1.0, 3.0, and 10 μM. The plates were placed on an orbital shaker to mix contents for 5 min at 120 movements/min at room temperature. LIDS, an established lipid activator of phagocyte cell-free systems, was added at a concentration of 130 μM, and O2^− production was initiated by the addition of 180 μM NADPH. The concentration of Nox2ds peptide that caused 50% inhibition of O2^− production (IC50) in COS-Nox2 cell lysates was calculated by Prism 5 (GraphPad Software, La Jolla, Calif., USA).\nCytochrome C Assay. FIG. 3A. Rate of O2^− production in COS-Nox2 lysates pretreated with Nox2ds or scrambled control (Scrmb Nox2ds). O2^− production was initiated by the addition of NADPH and measured by the SOD-inhibitable cytochrome c reduction for 10 min."}, "[2]": {"test_system": "hypoxia-induced pulmonary hypertension in mice", "test": "Aerosolized peptide in hypoxia-induced pulmonary hypertension, right ventricular hypertrophy", "format": "in vivo, mice (C57BL/6)", "experimental": "Nebulization was performed using a peptide solution of 5.6 mg of the Nox2ds-tat polypeptide—RKKRRQRRRCSTRIRRQL (SEQ ID NO: 7)—was dissolved in 5 mL of PBS. The polypeptide-containing solution was placed in a nebulization chamber which consisted of a Plexiglas living environment measuring 24×10×9 in. A diffuser was placed in front of the inlet to allow equal distribution of nebulized droplets, and a controlled fan pulled air through the environment\nThe polypeptide was delivered to mice (C57BL/6, n=2) at an air flow rate of 8 L/minute for 20 minutes per treatment. Treatment was repeated every other day for 21 days.\nFIG. 7 (top panel) is a graph showing right ventricular pressure and FIG. 7 (bottom panel) is a graph showing the Fulton's Index for the mice tested. To obtain a Fulton's Index, the heart and lungs are excised and weighed, and the ratio of RV free wall weight over septum plus left ventricular (LV) free wall weight is estimated and used as the index of RV hypertrophy.\nInvasive hemodynamics to examine RV function were carried out using pressure-volume loop analysis (Scisence P/V loop hardware, London, Ontario with IOX2 analysis software, EMKA, Falls Church, Va.). Contractility index (dP/dtmax/IP), Powermax/EDV, and ejection fraction as indicators of RV systolic function as well as the time constant of relaxation (Tau) and dP/dtmin as measures of RV relaxation were determined."}}, "note": "Where no end group is shown, it is not given here."}
{"substance": "CSTRVRRQL-NH2 [Nox2ds, CSTRVRRQL]", "values": [{"measurement": "rate of O2- generation, SOD-inhibitable reduction of cytochrome c", "setting": "[1]; 0.1 μM peptide", "result": "1.36±0.1 nmol O2^−/min/10^7 lysate-cell equivalents"}, {"measurement": "rate of O2- generation, SOD-inhibitable reduction of cytochrome c", "setting": "[1]; 0.3 μM peptide", "result": "1.05±0.2 nmol O2^−/min/10^7 lysate-cell equivalents"}, {"measurement": "rate of O2- generation, SOD-inhibitable reduction of cytochrome c", "setting": "[1]; 1 μM peptide", "result": "0.83±0.1 nmol O2^−/min/10^7 lysate-cell equivalents"}, {"measurement": "rate of O2- generation, SOD-inhibitable reduction of cytochrome c", "setting": "[1]; 3 μM peptide", "result": "0.82±0.1 nmol O2^−/min/10^7 lysate-cell equivalents"}, {"measurement": "rate of O2- generation, SOD-inhibitable reduction of cytochrome c", "setting": "[1]; 10 μM peptide", "result": "0.54±0.1 nmol O2^−/min/10^7 lysate-cell equivalents"}, {"measurement": "inhibition of Nox2-oxidase O2- production (in words)", "setting": "[1]; cytochrome c assay", "result": "concentration-dependently inhibited"}, {"measurement": "right ventricular hypertrophy and RV pressure (in words)", "setting": "[2]; hypoxia-induced pulmonary hypertension in mice", "result": "attenuated"}, {"measurement": "right ventricule/left ventricule+septum ratio (Fulton's Index)", "setting": "[2]; hypoxic mice, n=2, normoxic 0.21±0.01, hypoxic 0.27±0.02, preliminary data", "result": "0.22±0.004"}]}
